Measurements taken from EP4321514B1, “COMPOUND HAVING ALK INHIBITORY ACTIVITY, PREPARATION METHOD THEREFOR AND USE THEREOF” (CGeneTech (Suzhou, China) Co., Ltd., priority 2021, dated 2022).

How the values were obtained:
ALK kinase = target: T1, ALK kinase (Homo sapiens, UniProt Q9UM73); assay: ALK kinase inhibition test; type: biochemical; settings: 0.4 ng/well ALK kinase, 5 µM ATP, fluorescence 665 nm/615 nm
T1 construct: purchased Thermo Scientific
Experimental: The inhibitory activity of the compound in the present application on ALK kinase will be determined through in vitro tests, which can be represented by IC50 value.
4 µL of the diluted solution of the test compound and 2 µL of 0.4 ng/well ALK kinase solution (Thermo Scientific) were added into reaction wells in turn, incubated for 10 min at room temperature, then 4 µL of 0.7 µM biotin-labeled tyrosine kinase substrate and 5 µM ATP solution were added to start the kinase reaction.
Software Graphpad Prism 6 was used to fit an IC50 curve and calculate an IC50 value.

[1] = system: human anaplastic large cell lymphoma cell Karpas 299; assay: ALK gene fusion cell proliferation inhibition test (CCK-8); type: cell-based; settings: 72 hours incubation, CCK-8, absorbance at 450 nm
Experimental: The 96-well culture plate was placed in a 5 % carbon dioxide incubator at 37 °C to be cultured overnight. A test compound was formulated into a 10 mM storage solution with DMSO, and the 10mM storage solution was gradually diluted with DMSO at a dilution ration of 1:4 to obtain 9 concentration gradients of solutions of the test compound. The test compound was diluted with culture medium to 5 times the set final concentration of corresponding action, and the diluted solution of the test compound was added at 25 µL/well to corresponding cell wells according to the set compound layout, and then incubated in a 5 % carbon dioxide incubator at 37 °C for 72 hours. After 72 hours, 10 µL of CCK-8 was added into a cell culture medium, and the culture solution was sucked from adherent cells, then a freshly prepared CCK-8 detection solution was added and the cells were incubated in a 37 °C incubator for 1-4 hours. The absorbance at 450 nm wavelength on the SpectraMax i3X Microplate Reader was measured after gently shaking, with the absorbance at 650 nm as a reference.

T1 sequence (Q9UM73 19-1620): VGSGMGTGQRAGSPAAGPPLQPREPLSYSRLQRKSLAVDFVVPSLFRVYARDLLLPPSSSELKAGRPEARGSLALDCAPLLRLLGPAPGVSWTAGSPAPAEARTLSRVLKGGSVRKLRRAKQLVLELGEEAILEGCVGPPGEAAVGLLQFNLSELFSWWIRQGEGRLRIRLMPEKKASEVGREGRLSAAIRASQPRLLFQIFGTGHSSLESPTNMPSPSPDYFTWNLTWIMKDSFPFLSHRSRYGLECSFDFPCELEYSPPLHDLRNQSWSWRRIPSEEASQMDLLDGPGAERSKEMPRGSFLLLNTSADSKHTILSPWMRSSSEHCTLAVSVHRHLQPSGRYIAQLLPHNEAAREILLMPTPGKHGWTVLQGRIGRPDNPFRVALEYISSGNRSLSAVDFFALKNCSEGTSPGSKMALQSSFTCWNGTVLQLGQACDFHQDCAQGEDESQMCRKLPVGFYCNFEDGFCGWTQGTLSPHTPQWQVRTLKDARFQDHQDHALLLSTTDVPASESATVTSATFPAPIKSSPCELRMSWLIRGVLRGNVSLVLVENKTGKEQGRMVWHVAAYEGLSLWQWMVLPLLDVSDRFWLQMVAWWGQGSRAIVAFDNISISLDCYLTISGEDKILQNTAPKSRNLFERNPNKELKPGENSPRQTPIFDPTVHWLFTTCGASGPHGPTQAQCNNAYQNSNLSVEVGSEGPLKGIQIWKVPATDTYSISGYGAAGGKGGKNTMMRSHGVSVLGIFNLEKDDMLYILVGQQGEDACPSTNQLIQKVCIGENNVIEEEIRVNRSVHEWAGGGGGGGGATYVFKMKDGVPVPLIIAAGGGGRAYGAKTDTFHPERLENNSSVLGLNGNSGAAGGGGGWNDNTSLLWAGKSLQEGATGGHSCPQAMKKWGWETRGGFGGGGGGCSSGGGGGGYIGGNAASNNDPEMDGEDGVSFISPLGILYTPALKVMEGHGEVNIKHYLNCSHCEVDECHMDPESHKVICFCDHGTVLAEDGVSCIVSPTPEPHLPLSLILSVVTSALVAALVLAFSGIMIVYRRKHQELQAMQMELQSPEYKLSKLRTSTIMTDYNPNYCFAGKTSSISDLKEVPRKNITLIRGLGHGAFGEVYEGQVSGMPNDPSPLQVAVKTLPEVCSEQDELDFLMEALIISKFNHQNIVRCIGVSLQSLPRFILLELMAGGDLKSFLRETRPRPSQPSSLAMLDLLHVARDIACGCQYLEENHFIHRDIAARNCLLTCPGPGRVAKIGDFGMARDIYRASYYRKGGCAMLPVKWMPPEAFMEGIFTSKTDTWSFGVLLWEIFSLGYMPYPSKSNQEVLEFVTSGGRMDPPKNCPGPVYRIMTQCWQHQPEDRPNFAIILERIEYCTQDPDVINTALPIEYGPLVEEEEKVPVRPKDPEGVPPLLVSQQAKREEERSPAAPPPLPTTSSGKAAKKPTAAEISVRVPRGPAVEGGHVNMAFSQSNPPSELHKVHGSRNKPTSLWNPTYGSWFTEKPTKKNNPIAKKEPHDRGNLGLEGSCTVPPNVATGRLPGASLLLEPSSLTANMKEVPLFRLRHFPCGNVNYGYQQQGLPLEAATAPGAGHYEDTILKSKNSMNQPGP

| Compound | IC50 (ALK kinase) | IC50 [1] |
| --- | --- | --- |
| C#Cc1ccc2c3c([nH]c2c1)C(C)(C)c1cc(N2CCN(C)CC2)c(C#N)cc1C3=O [Example E13, 3-ethynyl-6,6-dimethyl-8-(4-methylpiperazin-1-yl)-11-oxo-6,11-dihydro-5H-benzo[b]carbazole-9-carbonitrile] | 5.76 nM | 7.52 nM |
| C#Cc1ccc2c3c([nH]c2c1)C(C)(C)c1cc(N2CCC(N4CCCC4)CC2)c(C#N)cc1C3=O [Example E14, 3-ethynyl-6,6-dimethyl-11-oxo-8-(4-(pyrrolidin-1-yl)piperidin-1-yl)-6,11-dihydro-5H-benzo[b]car bazole-9-carbonitrile] | 6.51 nM | 11.4 nM |
| C#Cc1ccc2c3c([nH]c2c1)C(C)(C)c1cc(N2CCC(N(C)C)CC2)c(C#N)cc1C3=O [Example E15, 8-(4-(dimethylamino)piperidin-1-yl)-3-ethynyl-6,6-dimethyl-11-oxo-6,11-dihydro-5H-benzo[b]car bazole-9-carbonitrile] | 4.62 nM | 8.29 nM |
| C#Cc1ccc2c3c([nH]c2c1)C(C)(C)c1cc(N2CCC(N4CCN(C)CC4)CC2)c(C#N)cc1C3=O [Example E16, 3-ethynyl-6,6-dimethyl-8-(4-(4-methylpiperazin-1-yl)piperidin-1-yl)-11-oxo-6,11-dihydro-5H-ben zo[b]carbazole-9-carbonitrile] | 5.7 nM | 3.27 nM |
| C#Cc1ccc2c3c([nH]c2c1)C(C)(C)c1cc(N2CCN(C4CC4)CC2)c(C#N)cc1C3=O [Example E17, 8-(4-cyclopropylpiperazin-1-yl)-3-ethynyl-6,6-dimethyl-11-oxo-6,11-dihydro-5H-benzo[b]carbazole-9-carbonitrile] | 49 nM | 33.2 nM |
| C#Cc1ccc2c3c([nH]c2c1)C(C)(C)c1cc(N2CCC(N4CCN(C5CC5)CC4)CC2)c(C#N)cc1C3=O [Example E18, 8-(4-(4-cyclopropylpiperazin-1-yl)piperidin-1-yl)-3-ethynyl-6,6-dimethyl-11-oxo-6,11-dihydro-5 H-benzo[b]carbazole-9-carbonitrile] | 10.3 nM | 1.71 nM |
| C#Cc1ccc2c3c([nH]c2c1)C(C)(C)c1cc(N2CCN(C)CC2)c(Cl)cc1C3=O [Example E19, 9-chloro-3-ethynyl-6,6-dimethyl-8-(4-methylpiperazin-1-yl)-5,6-dihydro-11H-benzo[b]carbazol-1 1-one] | 3.73 nM | 11.7 nM |
| C#Cc1ccc2c3c([nH]c2c1)C(C)(C)c1cc(N2CCN(C4CC4)CC2)c(Cl)cc1C3=O [Example E20, 9-chloro-8-(4-cyclopropylpiperazin-1-yl)-3-ethynyl-6,6-dimethyl-5,6-dihydro-11H-benzo[b]carbazol-11-one] | 40.1 nM | 55.9 nM |
| C#Cc1ccc2c3c([nH]c2c1)C(C)(C)c1cc(N2CCC(N(C)C)CC2)c(Cl)cc1C3=O [Example E21, 9-chloro-8-(4-(dimethylamino)piperidin-1-yl)-3-ethynyl-6,6-dimethyl-5,6-dihydro-11H-benzo[b]c arbazol-11-one] | 12.7 nM | 10.4 nM |
| C#Cc1ccc2c3c([nH]c2c1)C(C)(C)c1cc(N2CCC(N4CCN(C)CC4)CC2)c(Cl)cc1C3=O [Example E22, 9-chloro-3-ethynyl-6,6-dimethyl-8-(4-(4-methylpiperazin-1-yl)piperidin-1-yl)-5,6-dihydro-11H-be nzo[b]carbazol-11-one] | 13.5 nM | 4.67 nM |
| C#Cc1ccc2c3c([nH]c2c1)C(C)(C)c1cc(N2CCC(N4CCOCC4)CC2)c(Cl)cc1C3=O [Example E23, 9-chloro-3-ethynyl-6,6-dimethyl-8-(4-morpholinopiperidin-1-yl)-5,6-dihydro-11H-benzo[b]carbazol-11-one] | 2.61 nM | 22.2 nM |
| C#Cc1ccc2c3c([nH]c2c1)C(C)(C)c1cc(N2CCNCC2)c(Cl)cc1C3=O [Example E24, 9-chloro-3-ethynyl-6,6-dimethyl-8-(piperazin-1-yl)-5,6-dihydro-11H-benzo[b]carbazol-11-one] | 3.29 nM | 18.2 nM |
| C#Cc1ccc2c3c([nH]c2c1)C(C)(C)c1cc(N2CCC(N4CCC4)CC2)c(Cl)cc1C3=O [Example E25, 8-(4-(azetidin-1-yl)piperidin-1-yl)-9-chloro-3-ethynyl-6,6-dimethyl-5,6-dihydro-11H-benzo[b]car bazol-11-one] | 49.9 nM | 53 nM |
| CCc1cc2c(cc1N1CCC(N3CCOCC3)CC1)C(C)(C)c1[nH]c3cc(C#CC4CC4)ccc3c1C2=O [Example E26, 3-(cyclopropylethynyl)-9-ethyl-6,6-dimethyl-8-(4-morpholinopiperidin-1-yl)-5,6-dihydro-11H-be nzo[b]carbazol-11-one] | 38.4 nM | 20.6 nM |
| CC#Cc1ccc2c3c([nH]c2c1)C(C)(C)c1cc(N2CCC(N4CCOCC4)CC2)c(CC)cc1C3=O [Example E27, 9-ethyl-6,6-dimethyl-8-(4-morpholinopiperidin-1-yl)-3-(prop-1-yn-1-yl)-5,6-dihydro-11H-benzo[b]carbazol-11-one] | 10.2 nM | 110 nM |
| C#Cc1ccc2c3c([nH]c2c1)C(C)(C)c1cc(N2CCC(NC)CC2)c(C#N)cc1C3=O [Example E28, 3-ethynyl-6,6-dimethyl-8-(4-(methylamino)piperidin-1-yl)-11-oxo-6,11-dihydro-5H-benzo[b]carb azole-9-carbonitrile] | 2.62 nM | 5 nM |
